This passage reports T/C results from PubChem BioAssay AID248 (DTP/NCI, 2004).

The test system of the assay is L1210 leukemia ip in BDF1 mice, survival T/C. Briefly: NCI In Vivo Anticancer Drug Screen. Data for tumor model L1210 Leukemia (intraperitoneal) in B6D2F1 (BDF1) mice. The conditions noted are these: endpoint: mean survival time, higher = longer survival. In short, it runs like this:
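Mice bearing the transplanted tumor received compound or vehicle. Survival of the treated group was divided by that of the vehicle-treated control group to give the ratio.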

Where [1] appears, read: dose: 100.0 mg/kg/injection, schedule: Q01DX001 (ip), vehicle: carboxymethylcellulose (CMC).
The mark [2] stands for this setting: dose: 200.0 mg/kg/injection, schedule: Q01DX001 (ip), vehicle: carboxymethylcellulose (CMC).
[3] abbreviates: dose: 400.0 mg/kg/injection, schedule: Q01DX001 (ip), vehicle: carboxymethylcellulose (CMC).
The mark [4] stands for this setting: dose: 100.0 mg/kg/injection, schedule: Q04DX002 (ip), vehicle: Klucel (hydroxypropylcellulose) (HPC).
[5] abbreviates: dose: 200.0 mg/kg/injection, schedule: Q04DX002 (ip), vehicle: Klucel (hydroxypropylcellulose) (HPC).
Setting [6] is: dose: 100.0 mg/kg/injection, schedule: Q04DX003 (ip), vehicle: saline.
Where [7] appears, read: dose: 200.0 mg/kg/injection, schedule: Q04DX003 (ip), vehicle: saline.
Setting [8] is: dose: 400.0 mg/kg/injection, schedule: Q04DX003 (ip), vehicle: saline.
Where [9] appears, read: dose: 100.0 mg/kg/injection, schedule: Q04DX003 (ip), vehicle: saline with Tween-80.
The mark [10] stands for this setting: dose: 200.0 mg/kg/injection, schedule: Q04DX003 (ip), vehicle: saline with Tween-80.
Setting [11] is: dose: 400.0 mg/kg/injection, schedule: Q04DX003 (ip), vehicle: saline with Tween-80.
Setting [12] is: dose: 100.0 mg/kg/injection, schedule: Q04DX003 (ip), vehicle: Klucel (hydroxypropylcellulose) (HPC).
The mark [13] stands for this setting: dose: 200.0 mg/kg/injection, schedule: Q04DX003 (ip), vehicle: Klucel (hydroxypropylcellulose) (HPC).
Setting [14] is: dose: 400.0 mg/kg/injection, schedule: Q04DX003 (ip), vehicle: Klucel (hydroxypropylcellulose) (HPC).
The mark [15] stands for this setting: dose: 100.0 mg/kg/injection, schedule: Q01DX001 (ip), vehicle: saline.
Setting [16] is: dose: 200.0 mg/kg/injection, schedule: Q01DX001 (ip), vehicle: saline.

Where “and” joins values, the source holds several entries; their conditions need not be identical. Equal entries are not always repeated. Toxic doses and inconclusive results are not listed.

As for `CC(=O)Nc1c(Br)cc2c(c1Br)C(=O)c1cc(Br)ccc1-2`, the T/C by setting is: under setting [1], 100 % of control; under setting [2], 100 % of control; under setting [3], 100 % of control.
Turning to `Cc1ccc(C)c(NC(=O)Nc2ccccc2F)c1`, the T/C is, setting by setting: (dose: 100.0 mg/kg/injection, schedule: Q01DX009 (ip), vehicle: carboxymethylcellulose (CMC)) 89 % of control; (dose: 200.0 mg/kg/injection, schedule: Q01DX009 (ip), vehicle: carboxymethylcellulose (CMC)) 86 % of control; (dose: 400.0 mg/kg/injection, schedule: Q01DX009 (ip), vehicle: carboxymethylcellulose (CMC)) 87 % of control.
With `NC1(C(=O)O)C2CC3CC(C2)CC1C3` (stereo unspecified), the T/C is, setting by setting: (dose: 50.0 mg/kg/injection, schedule: Q01DX009 (ip), vehicle: other) 100 % of control; (dose: 100.0 mg/kg/injection, schedule: Q01DX009 (ip), vehicle: other) 105 % of control; (dose: 100.0 mg/kg/injection, schedule: Q04DX003 (ip), vehicle: alcohol) 96 % of control; (dose: 200.0 mg/kg/injection, schedule: Q01DX009 (ip), vehicle: other) 92 % of control; (dose: 200.0 mg/kg/injection, schedule: Q04DX003 (ip), vehicle: alcohol) 95 % of control.
For the compound `C=C(C)C1C2OC(=O)C1C1(O)CC3OC34C(=O)OC2C14C` (stereo unspecified), the T/C runs as follows: (dose: 1.25 mg/kg/injection, schedule: Q01DX001 (ip), vehicle: other) 109 % of control; (dose: 2.5 mg/kg/injection, schedule: Q01DX001 (ip), vehicle: other) 101 % of control.
Take `O=NN(CCCl)C(=O)Nc1ccc(CCO)cc1`: the T/C was 112 % of control (dose: 0.25 mg/kg/injection, schedule: Q01DX009 (ip), vehicle: saline); 114 % of control (dose: 0.38 mg/kg/injection, schedule: Q01DX009 (ip), vehicle: saline); 164 % of control (dose: 0.59 mg/kg/injection, schedule: Q01DX009 (ip), vehicle: saline); 205 % of control (dose: 0.89 mg/kg/injection, schedule: Q01DX009 (ip), vehicle: saline); 202 % of control (dose: 7.0 mg/kg/injection, schedule: Q01DX009 (ip), vehicle: saline); 109 % of control (dose: 10.0 mg/kg/injection, schedule: Q01DX009 (ip), vehicle: saline). Moreover, the T/C (dose: 78.0 mg/kg/injection, schedule: Q01DX001 (ip), vehicle: other) was 185 % of control; the T/C (dose: 119.0 mg/kg/injection, schedule: Q01DX001 (ip), vehicle: other) is 201 % of control; the T/C (dose: 178.0 mg/kg/injection, schedule: Q01DX001 (ip), vehicle: carboxymethylcellulose (CMC)) is 242 % of control; the T/C (dose: 178.0 mg/kg/injection, schedule: Q01DX001 (ip), vehicle: other) was 160 % of control and 235 % of control; the T/C (dose: 266.0 mg/kg/injection, schedule: Q01DX001 (ip), vehicle: carboxymethylcellulose (CMC)) is 226 % of control; the T/C (dose: 266.0 mg/kg/injection, schedule: Q01DX001 (ip), vehicle: other) is 193 % of control. Also, the T/C is, setting by setting: under setting [3], 276 % of control; (dose: 400.0 mg/kg/injection, schedule: Q01DX001 (ip), vehicle: other) 182 % of control; (dose: 600.0 mg/kg/injection, schedule: Q01DX001 (ip), vehicle: carboxymethylcellulose (CMC)) 244 % of control.
Regarding `NC(=O)c1ccccc1Cl`, the T/C is 104 % of control (dose: 100.0 mg/kg/injection, schedule: Q01DX001 (ip), vehicle: saline with Tween-80); 105 % of control (dose: 100.0 mg/kg/injection, schedule: Q01DX009 (ip), vehicle: saline sonified); 102 % of control (dose: 200.0 mg/kg/injection, schedule: Q01DX001 (ip), vehicle: saline with Tween-80); 89 % of control (dose: 200.0 mg/kg/injection, schedule: Q01DX009 (ip), vehicle: saline sonified); 101 % of control (dose: 400.0 mg/kg/injection, schedule: Q01DX001 (ip), vehicle: saline with Tween-80); 100 % of control (dose: 400.0 mg/kg/injection, schedule: Q01DX009 (ip), vehicle: saline sonified).
With `O=C1OI(Cl)c2ccccc21`, the T/C by setting is: under setting [4], 88 % of control; under setting [5], 120 % of control.
Regarding `NCC(Cc1ccc(O)cc1)P(=O)(O)O` (stereo unspecified), the T/C runs as follows: under setting [6], 100 % of control; under setting [7], 95 % of control; under setting [8], 92 % of control.
Regarding `OCC1OC(c2ccccc2)OC2C(CO)OC(c3ccccc3)OC12` (stereo unspecified), the T/C is 93 % of control under setting [9], 96 % of control under setting [10] and 89 % of control under setting [11].
For the compound `c1ccc([P+]2(Cc3cccc4ccccc34)CCc3[nH]c4ccccc4c3C2)cc1` (stereo unspecified), the T/C is 96 % of control under setting [12] and 98 % of control under setting [13].
Regarding `O=c1cc(NCc2c(Cl)cccc2[N+](=O)[O-])[nH]c(=O)[nH]1`, the T/C was 98 % of control under setting [12], 95 % of control under setting [13] and 95 % of control under setting [14].
For `O=C(O)C1CCC(C(=O)O)NC1` (stereo unspecified), the T/C runs as follows: under setting [6], 106 % of control; under setting [7], 102 % of control; under setting [8], 101 % of control.
For `Cn1c(=O)c2[nH]c(C3CCCCCC3)nc2n(C)c1=O`, the T/C is, setting by setting: (dose: 50.0 mg/kg/injection, schedule: Q01DX001 (ip), vehicle: saline) 87 % of control; under setting [15], 96 % of control; under setting [16], 87 % of control.
Take `CCCC[P+](CO)(CCCC)CCCC`: for the setting “dose: 30.0 mg/kg/injection, schedule: Q01DX001 (ip), vehicle: saline”, the T/C is 102 % of control.
Regarding `CCCCCCCCC(O)(CCCCCCC)C(=O)O` (stereo unspecified), the T/C under setting [4] was 95 % of control; the T/C under setting [5] was 117 % of control; the T/C (dose: 400.0 mg/kg/injection, schedule: Q04DX002 (ip), vehicle: Klucel (hydroxypropylcellulose) (HPC)) was 115 % of control.
As for `COc1ccc(C2C3CC4C(OC(=O)C42)C3I)cc1` (stereo unspecified), the T/C by setting is: (dose: 100.0 mg/kg/injection, schedule: Q01DX009 (ip), vehicle: saline with Tween-80) 97 % of control; under setting [9], 95 % of control; (dose: 200.0 mg/kg/injection, schedule: Q01DX009 (ip), vehicle: saline with Tween-80) 98 % of control; under setting [10], 95 % of control; (dose: 400.0 mg/kg/injection, schedule: Q01DX009 (ip), vehicle: saline with Tween-80) 88 % of control; under setting [11], 87 % of control.
For the compound `O=[N+]([O-])C1C2CCC(C2)C1[N+](=O)[O-]` (stereo unspecified), the T/C was 91 % of control (dose: 75.0 mg/kg/injection, schedule: Q01DX001 (ip), vehicle: saline); 100 % of control (dose: 150.0 mg/kg/injection, schedule: Q01DX001 (ip), vehicle: saline); 87 % of control (dose: 300.0 mg/kg/injection, schedule: Q01DX001 (ip), vehicle: saline).
Consider `COc1cc(NC2=C(Cl)C(=O)C(Nc3cc(OC)c(OC)c(OC)c3)=C(Cl)C2=O)cc(OC)c1OC`, for which the T/C runs as follows: under setting [12], 119 % of control; under setting [13], 95 % of control; under setting [14], 98 % of control.
In the case of `COc1ccccc1/C=N/Nc1nnc(N/N=C/c2ccccc2OC)c2ccccc12`, the T/C is, setting by setting: (dose: 50.0 mg/kg/injection, schedule: Q01DX001 (ip), vehicle: carboxymethylcellulose (CMC)) 107 % of control; under setting [1], 103 % of control; under setting [2], 101 % of control; under setting [3], 103 % of control.
Consider `COC1OCCCC1Br` (stereo unspecified), for which the T/C runs as follows: under setting [15], 91 % of control; under setting [16], 102 % of control; (dose: 400.0 mg/kg/injection, schedule: Q01DX001 (ip), vehicle: saline) 107 % of control.
Regarding `Cc1ccc(/C(=N\N=C(N)N)c2ccccc2)cc1`, the T/C (dose: 15.0 mg/kg/injection, schedule: Q01DX Z (ip), vehicle: saline) is 108 % of control; the T/C (dose: 30.0 mg/kg/injection, schedule: Q01DX Z (ip), vehicle: saline) was 110 % of control; the T/C (dose: 30.0 mg/kg/injection, schedule: Q01DX Z (oral), vehicle: other) is 105 % of control; the T/C (dose: 60.0 mg/kg/injection, schedule: Q01DX Z (ip), vehicle: saline) was 109 % of control; the T/C (dose: 60.0 mg/kg/injection, schedule: Q01DX Z (oral), vehicle: other) is 95 % of control.
